{"source": "patent US20250109127A1", "about": "“METHODS OF USE OF PHENOXYPROPYLAMINE COMPOUNDS TO TREAT DEPRESSION” (Minerva Neurosciences, Inc., priority 2013, published 2025)", "tested_on": "norepinephrin release in the rat prefrontal cortex", "test": "Microdialysis: norepinephrine release in prefrontal cortex after I.P. administration", "format": "in vivo", "details": "for Norepinephrin release, MEAN / Norepinephrin release, individual animals: 3 mg/kg IP; for Norepinephrin release, MEAN: n = 8; for Norepinephrin release, individual animals: per animal R#15,16,21,22,27,28,09,10; for Norepinephrin release, individual animals / NOREPINEPHRIN in dialysate, individual animals: hydrochloride; for NOREPINEPHRIN in dialysate, individual animals: 0.1 mg/kg", "protocol": "The aim of the study was to evaluate, using microdialysis, the effects of an intraperitoneal (I.P.) administration in rats of three different doses of SON-117 on dopamine and its metabolites, serotonin and its metabolite (5-HIAA), and norepinephrine levels in prefrontal cortex.\nThirty-two adult male Wistar rats were used for the whole study (4 groups of eight animals planned for the study, Table 1).\nSurgery was performed on rats weighing about 300 g at the beginning of the experiments. Rats were anaesthetized with Ketamine (50 mg/kg) & Xylazine (15 mg/kg) by intramuscular administration. The animals were placed in a stereotaxic apparatus in the flat-skull position at a constant setting of −3.3 mm between ear bars and the incisor bar. The animals were treated with a local anesthesic (xylocaine 1%, Astra Zeneca) and an analgesic (Temgesic, from Schering Plough, 0.05 mg/kg, s.c.). A rostrocaudal midline incision was made with a lancet to expose the dorsal skull surface. The “stereotaxic zero” was defined by the Bregma in accordance with Paxinos and Watson's atlas (1986). A hole was drilled in the skull with a drill and the meninges were pierced with a sterile needle to implant a CMA12 guide cannula which later received the dialysis probe.\nCoordinates used for implanting guide cannula in prefrontal cortex from Bregma were anteroposterior 3.7 mm, mediolateral 0.8 mm, and dorsoventral −2 mm (top of the probe was at −5 mm). The guide cannula was fixed to the skull with two stainless steel screws (1.88 mm outside diameter) anchored. An application of dental cement was added. A plastic collar allowed each animal to be tethered to a Swivel assembly of the CMA 120 awake animal system. Following surgery, rats were kept in individual cages and allowed to recover for a minimum of 3-5 days before the experimentation. The rats were handled and put in plastic bowl for 10 min at least every day to habituate the animals to their new environment for the dialysis. An I.P. administration with saline was also performed every day.\nDialysis probes (CMA12/3 mm, membrane, 20 kD cut-off, Carnegie Medicine, Stockholm, Sweden), were carefully washed before inserting into the guide cannula. The wash was performed with the artificial cerebrospinal fluid (aCSF) medium (NaCl 147 mM, KCl 2.7 mM, CaCl2 1.2 mM, MgCl2 0.85 mM) at room temperature. The dialysis system was then equilibrated at 20° C. at a perfusion rate of 1 μl/min with a Carnegie pump (CMA100). All catheters (FEP tubing, internal volume of 1.2 μl/10 cm, and tubing adaptors) used for microdialysis were treated in the same conditions.\nThe probes duly prepared were inserted into the guide cannula and the CMA120 Swivel assembly secured to the animal using a plastic collar. Flow through the dialysis probe with aCSF was maintained at a rate of 1 μl/min during the whole experimentation. The first four fractions (corresponding to 2 hours) were discarded to avoid the effects of parenchymal disturbance and to ensure that an approximate steady-state level was reached. Fractions were then collected over a period of 8.5 h during which time the animals remained quiet. The dialysates were automatically collected with an autosampler (microfraction collector CMA 140, Carnegie Medicin) and stored at −80° C. until analysis. […] Perfusion was then maintained for 7 hours with aCSF. The dialysates (30 μl) were collected into 300 μl vials, transferred into dry ice and then kept frozen (−80° C.) until analysis. Frozen samples were shipped to a partner for analysis. At the end of the microdialysis study, a PBS with colored ink was perfused through the probe in order to visualize the dialyzed area.\nCatecholamine assay: Concentrations of dopamine, DOPAC, HVA, 5-HIAA, 5-HT, and norepinephrin were determined for each sample by HPLC coupled with electrochemical detection. […]", "key": {"[1]": {"details": "SON-117 0.1 mg/kg I.P., T0-T30 min"}, "[2]": {"details": "SON-117 0.1 mg/kg I.P., T30-T1 h"}}, "note": "Where “and” joins values, the source holds several entries; their conditions need not be identical. Identical values can stand only once. Counter-ions that a name gives are not always drawn.", "data": [{"molecule": "Cc1nnc(-c2cc3c(OC[C@@H](O)CN4CCC(c5ccc(Cl)c(Cl)c5)CC4)cccc3o2)o1", "note": "[SON-117, (S)-1-(4-(3,4-dichlorophenyl)piperidino)-3-(2-(5-methyl-1,3,4-oxadiazol-2-yl)benzo(b)furan-4-yloxy)-2-propanol hydrochloride]", "values": [{"measurement": "Norepinephrin release, MEAN", "setting": "T3 h 30-T4 h", "value": "96.91 % of respective basal"}, {"measurement": "Norepinephrin release, individual animals", "setting": "T3 h 30-T4 h", "value": "92.25 % of respective basal and 96.09 % of respective basal and 81.54 % of respective basal and 98.50 % of respective basal and 84.78 % of respective basal and 103.12 % of respective basal and 98.12 % of respective basal and 120.87 % of respective basal"}, {"measurement": "Norepinephrin release, MEAN", "setting": "T3 h-T3 h 30", "value": "98.58 % of respective basal"}, {"measurement": "Norepinephrin release, individual animals", "setting": "T3 h-T3 h 30", "value": "105.14 % of respective basal and 113.23 % of respective basal and 79.41 % of respective basal and 94.38 % of respective basal and 76.17 % of respective basal and 100.68 % of respective basal and 93.69 % of respective basal and 125.93 % of respective basal"}, {"measurement": "Norepinephrin release, MEAN", "setting": "T4 h 30-T5 h", "value": "97.28 % of respective basal"}, {"measurement": "Norepinephrin release, individual animals", "setting": "T4 h 30-T5 h", "value": "58.60 % of respective basal and 125.43 % of respective basal and 101.68 % of respective basal and 87.38 % of respective basal and 80.27 % of respective basal and 104.69 % of respective basal and 112.63 % of respective basal and 107.59 % of respective basal"}, {"measurement": "Norepinephrin release, MEAN", "setting": "T4 h-T4 h 30", "value": "95.48 % of respective basal"}, {"measurement": "Norepinephrin release, individual animals", "setting": "T4 h-T4 h 30", "value": "62.13 % of respective basal and 91.42 % of respective basal and 88.64 % of respective basal and 99.58 % of respective basal and 82.26 % of respective basal and 99.52 % of respective basal and 111.02 % of respective basal and 129.30 % of respective basal"}, {"measurement": "Norepinephrin release, MEAN", "setting": "T5 h 30-T6 h", "value": "96.42 % of respective basal"}, {"measurement": "Norepinephrin release, individual animals", "setting": "T5 h 30-T6 h", "value": "82.50 % of respective basal and 100.18 % of respective basal and 65.95 % of respective basal and 85.98 % of respective basal and 75.91 % of respective basal and 86.97 % of respective basal and 139.22 % of respective basal and 134.66 % of respective basal"}, {"measurement": "Norepinephrin release, MEAN", "setting": "T5 h-T5 h 30", "value": "90.72 % of respective basal"}, {"measurement": "Norepinephrin release, individual animals", "setting": "T5 h-T5 h 30", "value": "87.73 % of respective basal and 105.81 % of respective basal and 60.65 % of respective basal and 89.96 % of respective basal and 73.79 % of respective basal and 96.43 % of respective basal and 137.91 % of respective basal and 93.51 % of respective basal"}, {"measurement": "Norepinephrin release, MEAN", "setting": "T6 h 30-T7 h", "value": "97.32 % of respective basal"}, {"measurement": "Norepinephrin release, individual animals", "setting": "T6 h 30-T7 h", "value": "66.13 % of respective basal and 133.14 % of respective basal and 93.99 % of respective basal and 95.87 % of respective basal and 77.85 % of respective basal"}, {"measurement": "Norepinephrin release, MEAN", "setting": "T6 h-T6 h 30", "value": "98.56 % of respective basal"}, {"measurement": "Norepinephrin release, individual animals", "setting": "T6 h-T6 h 30", "value": "78.64 % of respective basal and 120.89 % of respective basal and 90.25 % of respective basal and 94.88 % of respective basal and 80.09 % of respective basal and 93.58 % of respective basal and 131.29 % of respective basal"}, {"measurement": "Norepinephrin release, MEAN", "setting": "T-30 min-T0 (before administration)", "value": "97.42 % of respective basal"}, {"measurement": "Norepinephrin release, MEAN", "setting": "T-1 h 30-T-1 h (before administration)", "value": "102.02 % of respective basal"}, {"measurement": "Norepinephrin release, MEAN", "setting": "T-1 h-T-30 min (before administration)", "value": "100.56 % of respective basal"}, {"measurement": "NE post injection levels vs mean pre-injection value", "setting": "SON-117 0.1 mg/kg I.P.", "value": "no statistically significant differences"}, {"measurement": "NOREPINEPHRIN in dialysate, MEAN", "setting": "[1]", "value": "82.85 % of respective basal"}, {"measurement": "NOREPINEPHRIN in dialysate, individual animals", "setting": "[1]", "value": "92.79 % of respective basal and 99.624 % of respective basal and 74.34 % of respective basal and 64.40 % of respective basal and 84.29 % of respective basal and 81.69 % of respective basal"}, {"measurement": "NOREPINEPHRIN in dialysate, MEAN", "setting": "[2]", "value": "95.58 % of respective basal"}, {"measurement": "NOREPINEPHRIN in dialysate, individual animals", "setting": "[2]", "value": "105.21 % of respective basal and 96.78 % of respective basal and 87.94 % of respective basal and 101.10 % of respective basal and 90.37 % of respective basal and 88.40 % of respective basal and 114.24 % of respective basal and 80.61 % of respective basal"}, {"measurement": "NOREPINEPHRIN in dialysate, MEAN", "setting": "SON-117 0.1 mg/kg I.P., T1 h 30-T2 h", "value": "81.28 % of respective basal"}]}]}
